Like-named read-outs stand apart in the source and are kept apart here.
Biological target: NR1/NR2A (Homo sapiens (Human), UniProt Q05586+Q12879)
Experiment: FDSS Ca2+ influx inhibition assay in HEK293 cells expressing NR1/NR2A
Type: cell-based
Details: 3 μM glutamate, 3 μM glycine, 1 mM Ca2+
Procedure: Cell Culture and plating: HEK293 cells expressing NR1/NR2A (Chantest, Cleveland, Ohio) were grown to 70-80% confluency as an adherent monolayer in standard tissue culture flasks at 37° C., 5% CO2 per supplier's instructions.
After induction, cell culture medium was removed and cells were rinsed once with Ca^2+ and Mg^2+-free Dulbecco's phosphate buffered saline. Cells were then removed from the flask using TrypLE™ Express (Life Technologies) according to the manufacturer's instructions and collected to 50 ml centrifuge tubes. Following two washes in Ca^2+/Mg^2+-free HBSS with 20 mM HEPES (HHnoCa), cells were counted and viability assessed using trypan blue. To load cells with Ca^2+-sensitive dye, they were resuspended in fluo-8 plus Component B (AAT Bioquest Products) diluted in HHnoCa and incubated 15 minutes at 37° C., followed by 30 minutes at room temp (in dark). Cells were then washed and resuspended in HHnoCa to remove extracellular dye and plated in 384-well plates (Falcon, uncoated) at 20,000-30,000 cells/well in a final volume of 25 μL/well.
FDSS Assay: To each well of the plate, 10 μL test compound, control (MK801) or HHnoCa buffer was added to a final concentration of 10 μM with a final concentration of DMSO of 0.1%. Following 10 minutes pre-incubation in the dark, plates are loaded onto the Hamamatsu FDSS 6000. After collecting baseline fluorescence images, 3 μM glutamate, 3 μM glycine, and 1 mM Ca^2+ in HHnoCa buffer is added to each well, and Ca^2+ is recorded for 3 minutes. Data were processed by computing ratio of fluorescence at the end of data collection to baseline fluorescence to assess degree of Ca^2+ influx inhibition relative to that observed in MK801.

[1] = inhibition relative to MK801, read-out: NR2A IC50

Chain of NR1/NR2A (Q12879 23-1464, other chains not shown): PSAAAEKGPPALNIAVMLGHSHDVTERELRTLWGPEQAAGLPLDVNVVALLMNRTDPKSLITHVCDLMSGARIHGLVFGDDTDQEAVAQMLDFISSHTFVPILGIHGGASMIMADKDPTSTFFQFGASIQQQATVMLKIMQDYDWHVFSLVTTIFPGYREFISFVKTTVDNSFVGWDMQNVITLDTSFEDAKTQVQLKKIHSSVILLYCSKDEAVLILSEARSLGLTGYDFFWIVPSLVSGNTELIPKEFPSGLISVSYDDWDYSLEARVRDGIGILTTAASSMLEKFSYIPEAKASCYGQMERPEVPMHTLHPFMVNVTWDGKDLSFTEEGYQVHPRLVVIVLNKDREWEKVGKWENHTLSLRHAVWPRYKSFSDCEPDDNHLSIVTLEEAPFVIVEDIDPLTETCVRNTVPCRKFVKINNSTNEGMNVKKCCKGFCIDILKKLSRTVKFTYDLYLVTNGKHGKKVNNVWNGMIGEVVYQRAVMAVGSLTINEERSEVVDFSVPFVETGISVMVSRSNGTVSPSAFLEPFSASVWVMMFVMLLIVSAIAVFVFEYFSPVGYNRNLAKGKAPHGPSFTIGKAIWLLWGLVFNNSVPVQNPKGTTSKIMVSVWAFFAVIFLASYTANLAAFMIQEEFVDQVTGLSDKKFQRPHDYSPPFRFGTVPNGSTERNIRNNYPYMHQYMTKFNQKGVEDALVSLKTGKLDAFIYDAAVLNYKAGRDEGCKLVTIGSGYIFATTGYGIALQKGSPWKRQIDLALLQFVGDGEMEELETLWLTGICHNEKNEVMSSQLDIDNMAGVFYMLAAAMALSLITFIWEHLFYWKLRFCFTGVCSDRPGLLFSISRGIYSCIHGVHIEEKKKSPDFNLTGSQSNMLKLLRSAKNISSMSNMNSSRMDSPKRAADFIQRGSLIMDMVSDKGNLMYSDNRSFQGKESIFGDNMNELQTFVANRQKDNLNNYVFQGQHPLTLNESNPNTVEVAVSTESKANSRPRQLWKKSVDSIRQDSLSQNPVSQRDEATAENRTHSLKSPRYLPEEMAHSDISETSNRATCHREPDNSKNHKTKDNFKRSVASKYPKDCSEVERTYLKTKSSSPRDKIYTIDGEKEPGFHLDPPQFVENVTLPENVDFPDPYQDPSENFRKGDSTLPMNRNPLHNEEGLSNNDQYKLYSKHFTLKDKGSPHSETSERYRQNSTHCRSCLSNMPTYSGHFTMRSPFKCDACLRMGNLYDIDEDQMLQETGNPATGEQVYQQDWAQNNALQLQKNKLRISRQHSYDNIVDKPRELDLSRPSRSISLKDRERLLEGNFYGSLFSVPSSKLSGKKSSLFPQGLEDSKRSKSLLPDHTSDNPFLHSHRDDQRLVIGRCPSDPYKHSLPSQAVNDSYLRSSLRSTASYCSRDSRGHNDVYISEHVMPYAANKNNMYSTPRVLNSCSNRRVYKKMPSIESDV

SMILES | IC50 (read-out: Binned Activity) | IC50 [1]
O=C(NCc1cncs1)c1cnc(CNS(=O)(=O)c2ccc(F)c(Cl)c2)cn1 [5-(3-chloro-4-fluorobenzenesulfon-amidomethyl)-N-(1,3-thiazol-5-ylmethyl)pyrazine-2-carboxamide] | 0.1 to 1 µM | 
O=C(NCc1cncs1)c1ccc(CNS(=O)(=O)c2ccc(F)c(Cl)c2)cn1 [5-(3-chloro-4-fluorobenzenesulfon-amidomethyl)-N-(1,3-thiazol-5-ylmethyl)pyridine-2-carboxamide] | 0.1 to 1 µM | 
O=C(NCc1ccco1)c1ccc(CNS(=O)(=O)c2ccc(F)c(Cl)c2)cn1 [5-(3-chloro-4-fluorobenzenesulfon-amidomethyl)-N-(furan-2-ylmethyl)pyridine-2-carboxamide] | > 10 µM | 10 µM
O=C(NCc1ccoc1)c1ccc(CNS(=O)(=O)c2ccc(F)c(Cl)c2)cn1 [5-(3-chloro-4-fluorobenzenesulfon-amidomethyl)-N-(furan-3-ylmethyl)pyridine-2-carboxamide] | > 10 µM | 10 µM
O=C(NCc1cnccn1)c1cnc(CNS(=O)(=O)c2ccc(F)c(Cl)c2)cn1 [5-(3-chloro-4-fluorobenzenesulfon-amidomethyl)-N-(pyrazin-2-ylmethyl)pyrazine-2-carboxamide] | 1 to 10 µM | 
O=C(NCc1cnccn1)c1ccc(CNS(=O)(=O)c2ccc(F)c(Cl)c2)cn1 [5-(3-chloro-4-fluorobenzenesulfon-amidomethyl)-N-(pyrazin-2-ylmethyl)pyridine-2-carboxamide] | 1 to 10 µM | 
O=C(NCc1ccccn1)c1cnc(CNS(=O)(=O)c2ccc(F)c(Cl)c2)cn1 [5-(3-chloro-4-fluorobenzenesulfon-amidomethyl)-N-(pyridin-2-ylmethyl)pyrazine-2-carboxamide] | > 10 µM | 10 µM
O=C(NCc1ccccn1)c1ccc(CNS(=O)(=O)c2ccc(F)c(Cl)c2)cn1 [5-(3-chloro-4-fluorobenzenesulfon-amidomethyl)-N-(pyridin-2-ylmethyl)pyridine-2-carboxamide] | > 10 µM | 10 µM
O=C(NCc1cccnc1)c1cnc(CNS(=O)(=O)c2ccc(F)c(Cl)c2)cn1 [5-(3-chloro-4-fluorobenzenesulfon-amidomethyl)-N-(pyridin-3-ylmethyl)pyrazine-2-carboxamide] | 0.1 to 1 µM | 
O=C(NCc1cccnc1)c1ccc(CNS(=O)(=O)c2ccc(F)c(Cl)c2)cn1 [5-(3-chloro-4-fluorobenzenesulfon-amidomethyl)-N-(pyridin-3-ylmethyl)pyridine-2-carboxamide] | 0.1 to 1 µM | 
O=C(NCc1cccnc1)c1ncc(CNS(=O)(=O)c2ccc(F)c(Cl)c2)cn1 [5-(3-chloro-4-fluorobenzenesulfon-amidomethyl)-N-(pyridin-3-ylmethyl)pyrimidine-2-carboxamide] | > 10 µM | 10 µM
O=C(NCc1ccncc1)c1cnc(CNS(=O)(=O)c2ccc(F)c(Cl)c2)cn1 [5-(3-chloro-4-fluorobenzenesulfon-amidomethyl)-N-(pyridin-4-ylmethyl)pyrazine-2-carboxamide] | 1 to 10 µM | 
O=C(NCc1ccncc1)c1ccc(CNS(=O)(=O)c2ccc(F)c(Cl)c2)cn1 [5-(3-chloro-4-fluorobenzenesulfon-amidomethyl)-N-(pyridin-4-ylmethyl)pyridine-2-carboxamide] | > 10 µM | 10 µM
O=C(NCc1ncccn1)c1ccc(CNS(=O)(=O)c2ccc(F)c(Cl)c2)cn1 [5-(3-chloro-4-fluorobenzenesulfon-amidomethyl)-N-(pyrimidin-2-ylmethyl)pyridine-2-carboxamide] | > 10 µM | 10 µM
O=C(NCc1ccncn1)c1cnc(CNS(=O)(=O)c2ccc(F)c(Cl)c2)cn1 [5-(3-chloro-4-fluorobenzenesulfon-amidomethyl)-N-(pyrimidin-4-ylmethyl)pyrazine-2-carboxamide] | > 10 µM | 10 µM
O=C(NCc1ccncn1)c1ccc(CNS(=O)(=O)c2ccc(F)c(Cl)c2)cn1 [5-(3-chloro-4-fluorobenzenesulfon-amidomethyl)-N-(pyrimidin-4-ylmethyl)pyridine-2-carboxamide] | > 10 µM | 10 µM
O=C(NCc1cncnc1)c1cnc(CNS(=O)(=O)c2ccc(F)c(Cl)c2)cn1 [5-(3-chloro-4-fluorobenzenesulfon-amidomethyl)-N-(pyrimidin-5-ylmethyl)pyrazine-2-carboxamide] | 1 to 10 µM | 
O=C(NCc1cncnc1)c1ccc(CNS(=O)(=O)c2ccc(F)c(Cl)c2)cn1 [5-(3-chloro-4-fluorobenzenesulfon-amidomethyl)-N-(pyrimidin-5-ylmethyl)pyridine-2-carboxamide] | 1 to 10 µM | 
O=C(NCc1cccs1)c1ccc(CNS(=O)(=O)c2ccc(F)c(Cl)c2)cn1 [5-(3-chloro-4-fluorobenzenesulfon-amidomethyl)-N-(thiophen-2-ylmethyl)pyridine-2-carboxamide] | > 10 µM | 10 µM
O=C(NCc1ccsc1)c1ccc(CNS(=O)(=O)c2ccc(F)c(Cl)c2)cn1 [5-(3-chloro-4-fluorobenzenesulfon-amidomethyl)-N-(thiophen-3-ylmethyl)pyridine-2-carboxamide] | > 10 µM | 10 µM
Cc1ncc(C(C)NC(=O)c2cnc(CNS(=O)(=O)c3ccc(F)c(Cl)c3)cn2)s1 (centres unmarked) [5-(3-chloro-4-fluorobenzenesulfon-amidomethyl)-N-[1-(2-methyl-1,3-thiazol-5-yl)ethyl]pyrazine-2-carboxamide] | 0.1 to 1 µM | 
CC(NC(=O)c1ccc(CNS(=O)(=O)c2ccc(F)c(Cl)c2)cn1)c1ccco1 (centres unmarked) [5-(3-chloro-4-fluorobenzenesulfon-amidomethyl)-N-[1-(furan-2-yl)ethyl]pyridine-2-carboxamide] | 1 to 10 µM | 
CC(NC(=O)c1ccc(CNS(=O)(=O)c2ccc(F)c(Cl)c2)cn1)c1cccs1 (centres unmarked) [5-(3-chloro-4-fluorobenzenesulfon-amidomethyl)-N-[1-(thiophen-2-yl)ethyl]pyridine-2-carboxamide] | 1 to 10 µM | 
COc1ccc(CCNC(=O)c2ccc(CNS(=O)(=O)c3ccc(F)c(Cl)c3)cn2)cc1 [5-(3-chloro-4-fluorobenzenesulfon-amidomethyl)-N-[2-(4-methoxyphenyl)ethyl] pyridine-2-carboxamide] | > 10 µM | 10 µM
CN(C)CCNC(=O)c1ccc(CNS(=O)(=O)c2ccc(F)c(Cl)c2)cn1 [5-(3-chloro-4-fluorobenzenesulfon-amidomethyl)-N-[2-(dimethylamino)ethyl] pyridine-2-carboxamide] | > 10 µM | 10 µM
CN(C)CCCNC(=O)c1ccc(CNS(=O)(=O)c2ccc(F)c(Cl)c2)cn1 [5-(3-chloro-4-fluorobenzenesulfon-amidomethyl)-N-[3-(dimethylamino)propyl] pyridine-2-carboxamide] | > 10 µM | 10 µM
Cc1cc(CNC(=O)c2cnc(CNS(=O)(=O)c3ccc(F)c(Cl)c3)cn2)n(C)n1 [5-(3-chloro-4-fluorobenzenesulfon-amidomethyl)-N-[(1,3-dimethyl-1H-pyrazol-5-yl)methyl]pyrazine-2-carboxamide] | > 10 µM | 10 µM
Cc1cc(CNC(=O)c2ccc(CNS(=O)(=O)c3ccc(F)c(Cl)c3)cn2)n(C)n1 [5-(3-chloro-4-fluorobenzenesulfon-amidomethyl)-N-[(1,3-dimethyl-1H-pyrazol-5-yl)methyl]pyridine-2-carboxamide] | > 10 µM | 10 µM

— patent US9963434B2, “N-arylmethyl sulfonamide negative modulators of NR2A” (LUC THERAPEUTICS, priority 2013, dated 2018)
